Biological target: Factor XIa (Homo sapiens (Human), UniProt P03951)
Assay: Factor XIa enzyme inhibition assay (dose response, fluorogenic AMC substrate)
Type: biochemical
Settings: read-out: hFXIa IC50
Method in brief: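 Fluorogenic progress curves (30 min, 1-min reads, 30° C) were recorded for 0.25 nM FXIa cleaving 50 μM Glp-Pro-Arg-AMC in Hepes pH 7.4 buffer with NaCl and Tween 20. Compounds were serially two-fold diluted, and IC50 was fitted with a Hill equation.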

Chain of Factor XIa (P03951 388-625): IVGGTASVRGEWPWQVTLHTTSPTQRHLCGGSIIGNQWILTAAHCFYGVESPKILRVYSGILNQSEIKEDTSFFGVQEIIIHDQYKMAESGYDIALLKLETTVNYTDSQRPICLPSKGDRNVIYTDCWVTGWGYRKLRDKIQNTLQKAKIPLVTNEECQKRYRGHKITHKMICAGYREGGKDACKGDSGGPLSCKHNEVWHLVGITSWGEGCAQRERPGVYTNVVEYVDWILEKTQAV
Chain of Factor XIa (P03951 19-387 partner): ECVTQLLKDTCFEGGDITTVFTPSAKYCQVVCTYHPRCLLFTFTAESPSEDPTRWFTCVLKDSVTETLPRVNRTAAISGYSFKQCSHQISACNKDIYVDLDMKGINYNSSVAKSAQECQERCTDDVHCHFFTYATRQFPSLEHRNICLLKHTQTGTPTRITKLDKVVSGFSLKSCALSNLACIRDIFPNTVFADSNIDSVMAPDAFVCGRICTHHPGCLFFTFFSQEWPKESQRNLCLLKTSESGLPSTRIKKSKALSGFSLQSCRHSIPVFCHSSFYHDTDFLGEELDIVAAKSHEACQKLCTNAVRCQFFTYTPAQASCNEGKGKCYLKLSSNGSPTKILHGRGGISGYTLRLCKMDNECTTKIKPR

| Compound | IC50 [µM] |
| --- | --- |
| CC[C@@H](NC(=O)N1C(=O)[C@H](Cc2cc(C)nc(N)c2)[C@H]1C(=O)N(C)c1cnn(C)c1)c1cc(C)ccc1F [Compound 1-177, (2S,3R)-3-((2-amino-6-methylpyridin-4-yl)methyl)-N2-(1-methyl-1H-pyrazol-4-yl)-N1-((R)-1-(2-fluoro-5-methylphenyl)propyl)-N2-methyl-4-oxoazetidine-1,2-dicarboxamide] | 0.01 to 0.1 |
| CC[C@@H](NC(=O)N1C(=O)[C@H](Cc2cc(C)nc(N)c2)[C@H]1C(=O)N(C)c1cnn(C)c1)c1ccc(Cl)cc1 [Compound 1-170, (2S,3R)-3-((2-amino-6-methylpyridin-4-yl)methyl)-N2-(1-methyl-1H-pyrazol-4-yl)-N1-((R)-1-(4-chlorophenyl)propyl)-N2-methyl-4-oxoazetidine-1,2-dicarboxamide] | 0.01 to 0.1 |
| CC[C@@H](NC(=O)N1C(=O)[C@H](Cc2ccnc(N)c2)[C@H]1C(=O)N(C)c1nccn1C)c1ccc(C)cc1Cl [Compound 1-116, (2S,3R)-3-((2-aminopyridin-4-yl)methyl)-N2-(1-methyl-1H-imidazol-2-yl)-N1-((R)-1-(2-chloro-4-methylphenyl)propyl)-N2-methyl-4-oxoazetidine-1,2-dicarboxamide] | < 0.01 |
| CC[C@@H](NC(=O)N1C(=O)[C@H](Cc2cc(C)nc(N)c2)[C@H]1C(=O)N(C)c1nccn1C)C1CCCCC1 [Compound 1-75, (2S,3R)-3-((2-amino-6-methylpyridin-4-yl)methyl)-N2-(1-methyl-1H-imidazol-2-yl)-N1-((R)-1-cyclohexylpropyl)-N2-methyl-4-oxoazetidine-1,2-dicarboxamide] | 0.01 to 0.1 |
| CC[C@@H](NC(=O)N1C(=O)[C@H](Cc2ccnc(N)c2)[C@H]1C(=O)N(C)c1nccn1C)C1CCCOC1 (stereo partly drawn) [Compound 1-126, (2S,3R)-3-((2-aminopyridin-4-yl)methyl)-N2-(1-methyl-1H-imidazol-2-yl)-N1-((R)-1-(oxan-3-yl)propyl)-N2-methyl-4-oxoazetidine-1,2-dicarboxamide] | 0.01 to 0.1 |
| CC[C@@H](NC(=O)N1C(=O)[C@H](Cc2cc(C)nc(N)c2)[C@H]1C(=O)N(C)c1cnn(C)c1)c1cc(C)ccc1C [Compound 1-176, (2S,3R)-3-((2-amino-6-methylpyridin-4-yl)methyl)-N2-(1-methyl-1H-pyrazol-4-yl)-N1-((R)-1-(2,5-dimethylphenyl)propyl)-N2-methyl-4-oxoazetidine-1,2-dicarboxamide] | 0.01 to 0.1 |
| CC[C@@H](NC(=O)N1C(=O)[C@H](Cc2ccnc(N)c2)[C@H]1C(=O)N(C)c1nccn1C)c1ccc(C)cc1F [Compound 1-119, (2S,3R)-3-((2-aminopyridin-4-yl)methyl)-N2-(1-methyl-1H-imidazol-2-yl)-N1-((R)-1-(2-fluoro-4-methylphenyl)propyl)-N2-methyl-4-oxoazetidine-1,2-dicarboxamide] | < 0.01 |
| CN(C(=O)[C@@H]1[C@@H](Cc2ccnc(N)c2)C(=O)N1C(=O)NCc1cccc(F)c1)c1cn(C)cn1 [Compound 1-34, (2S,3R)-3-((2-aminopyridin-4-yl)methyl)-N2-(1-methyl-1H-imidazol-4-yl)-N1-((3-fluorophenyl)methyl)-N2-methyl-4-oxoazetidine-1,2-dicarboxamide] | 0.1 to 1 |
| CC[C@@H](NC(=O)N1C(=O)[C@H](Cc2ccnc(N)c2)[C@H]1C(=O)N(C)c1ccn(C)n1)c1ccc(C)c(F)c1F [Compound 1-201, (2S,3R)-3-((2-aminopyridin-4-yl)methyl)-N2-(1-methyl-1H-pyrazol-3-yl)-N1-((R)-1-(2,3-difluoro-4-methylphenyl)propyl)-N2-methyl-4-oxoazetidine-1,2-dicarboxamide] | < 0.01 |
| CC[C@@H](NC(=O)N1C(=O)[C@H](Cc2cc(C)nc(N)c2)[C@H]1C(=O)N(C)c1cnn(C)c1)c1cc(F)cc(F)c1 [Compound 1-189, (2S,3R)-3-((2-amino-6-methylpyridin-4-yl)methyl)-N2-(1-methyl-1H-pyrazol-4-yl)-N1-((R)-1-(3,5-difluorophenyl)propyl)-N2-methyl-4-oxoazetidine-1,2-dicarboxamide] | 0.01 to 0.1 |
| CN(C(=O)[C@@H]1[C@@H](Cc2ccnc(N)c2)C(=O)N1C(=O)N[C@@H](C1CC1)C(F)(F)F)c1ccn(C)n1 [Compound 1-30, (2S,3R)-3-((2-aminopyridin-4-yl)methyl)-N2-(1-methyl-1H-pyrazol-3-yl)-N1-((S)-1-cyclopropyl-2,2,2-trifluoroethyl)-N2-methyl-4-oxoazetidine-1,2-dicarboxamide] | 0.01 to 0.1 |
| CC[C@@H](NC(=O)N1C(=O)[C@H](Cc2ccnc(N)c2)[C@H]1C(=O)N(C)c1ccn(C)n1)c1cccc(C)c1C [Compound 1-140, (2S,3R)-3-((2-aminopyridin-4-yl)methyl)-N2-(1-methyl-1H-pyrazol-3-yl)-N1-((R)-1-(2,3-dimethylphenyl)propyl)-N2-methyl-4-oxoazetidine-1,2-dicarboxamide] | < 0.01 |
| CC[C@@H](NC(=O)N1C(=O)[C@H](Cc2cc(C)nc(N)c2)[C@H]1C(=O)N(C)c1ccnn1C)c1cccc(C)c1C [Compound 1-149, (2S,3R)-3-((2-amino-6-methylpyridin-4-yl)methyl)-N2-(1-methyl-1H-pyrazol-5-yl)-N1-((R)-1-(2,3-dimethylphenyl)propyl)-N2-methyl-4-oxoazetidine-1,2-dicarboxamide] | 0.01 to 0.1 |
| CC[C@@H](NC(=O)N1C(=O)[C@H](Cc2cc(C)nc(N)c2)[C@H]1C(=O)N(C)c1nccn1C)c1cc(C)ccc1C [Compound 1-108, (2S,3R)-3-((2-amino-6-methylpyridin-4-yl)methyl)-N2-(1-methyl-1H-imidazol-2-yl)-N1-((R)-1-(2,5-dimethylphenyl)propyl)-N2-methyl-4-oxoazetidine-1,2-dicarboxamide] | 0.01 to 0.1 |
| CN(C(=O)[C@@H]1[C@@H](Cc2ccnc(N)c2)C(=O)N1C(=O)NCc1cccc(Cl)c1)c1cnn(C)c1 [Compound 1-27, (2S,3R)-3-((2-aminopyridin-4-yl)methyl)-N2-(1-methyl-1H-pyrazol-4-yl)-N1-((3-chlorophenyl)methyl)-N2-methyl-4-oxoazetidine-1,2-dicarboxamide] | 0.01 to 0.1 |
| CC[C@@H](NC(=O)N1C(=O)[C@H](Cc2cc(C)nc(N)c2)[C@H]1C(=O)N(C)c1ccnn1C)c1cccc(F)c1C [Compound 1-150, (2S,3R)-3-((2-amino-6-methylpyridin-4-yl)methyl)-N2-(1-methyl-1H-pyrazol-5-yl)-N1-((R)-1-(3-fluoro-2-methylphenyl)propyl)-N2-methyl-4-oxoazetidine-1,2-dicarboxamide] | < 0.01 |
| (2S,3R)-3-((2-aminopyridin-4-yl)methyl)-N2-(1-methyl-1H-imidazol-2-yl)-N1-((R)-1-(3-chlorophenyl)propyl)-N1-methyl-N2-methyl-4-oxoazetidine-1,2-dicarboxamide [Compound 1-65] | 0.01 to 0.1 |
| CC[C@@H](NC(=O)N1C(=O)[C@H](Cc2ccnc(N)c2)[C@H]1C(=O)N(C)c1ccnn1C)c1cc(C)c(F)c(C)c1 [Compound 1-205, (2S,3R)-3-((2-aminopyridin-4-yl)methyl)-N2-(1-methyl-1H-pyrazol-5-yl)-N1-((R)-1-(3,5-dimethyl-4-fluorophenyl)propyl)-N2-methyl-4-oxoazetidine-1,2-dicarboxamide] | < 0.01 |
| CC[C@@H](NC(=O)N1C(=O)[C@H](Cc2ccnc(N)c2)[C@H]1C(=O)N(C)c1ccn(C)n1)c1ccn(C)n1 [Compound 1-42, (2S,3R)-3-((2-aminopyridin-4-yl)methyl)-N2-(1-methyl-1H-pyrazol-3-yl)-N1-((R)-1-(1-methyl-1H-pyrazol-3-yl)propyl)-N2-methyl-4-oxoazetidine-1,2-dicarboxamide] | 0.1 to 1 |
| CC[C@@H](NC(=O)N1C(=O)[C@H](Cc2ccnc(N)c2)[C@H]1C(=O)N(C)c1ccnn1C)c1ccc(F)c(F)c1 [Compound 1-215, (2S,3R)-3-((2-aminopyridin-4-yl)methyl)-N2-(1-methyl-1H-pyrazol-5-yl)-N1-((R)-1-(3,4-difluorophenyl)propyl)-N2-methyl-4-oxoazetidine-1,2-dicarboxamide] | < 0.01 |
| CC[C@@H](NC(=O)N1C(=O)[C@H](Cc2cc(C)nc(N)c2)[C@H]1C(=O)N(C)C1=NCC(=O)N1C)c1ccccc1 [Compound 1-148, (2S,3R)-3-((2-amino-6-methylpyridin-4-yl)methyl)-N2-(5-oxo-1-methyl-4,5-dihydro-1H-imidazol-2-yl)-N1-((R)-1-phenylpropyl)-N2-methyl-4-oxoazetidine-1,2-dicarboxamide] | 0.1 to 1 |
| CC[C@@H](NC(=O)N1C(=O)[C@H](Cc2ccnc(N)c2)[C@H]1C(=O)N(C)c1cscn1)c1cccc(C)c1 [Compound 1-24, (2S,3R)-3-((2-aminopyridin-4-yl)methyl)-N2-(4-thiazolyl)-N1-((R)-1-(3-methylphenyl)propyl)-N2-methyl-4-oxoazetidine-1,2-dicarboxamide] | < 0.01 |
| CC[C@@H](NC(=O)N1C(=O)[C@H](Cc2ccnc(N)c2)[C@H]1C(=O)N(C)c1ccn(C)n1)c1ccc(C)cc1 [Compound 1-124, (2S,3R)-3-((2-aminopyridin-4-yl)methyl)-N2-(1-methyl-1H-pyrazol-3-yl)-N1-((R)-1-(4-methylphenyl)propyl)-N2-methyl-4-oxoazetidine-1,2-dicarboxamide] | < 0.01 |
| CC[C@@H](NC(=O)N1C(=O)[C@H](Cc2ccnc(N)c2)[C@H]1C(=O)N(C)c1nccn1C)c1ccc(C)c(F)c1F [Compound 1-192, (2S,3R)-3-((2-aminopyridin-4-yl)methyl)-N2-(1-methyl-1H-imidazol-2-yl)-N1-((R)-1-(2,3-difluoro-4-methylphenyl)propyl)-N2-methyl-4-oxoazetidine-1,2-dicarboxamide] | < 0.01 |
| CC[C@@H](NC(=O)N1C(=O)[C@H](Cc2cc(C)nc(N)c2)[C@H]1C(=O)N(C)c1ccnn1C)c1ccc(F)cc1C [Compound 1-159, (2S,3R)-3-((2-amino-6-methylpyridin-4-yl)methyl)-N2-(1-methyl-1H-pyrazol-5-yl)-N1-((R)-1-(4-fluoro-2-methylhenyl)propyl)-N2-methyl-4-oxoazetidine-1,2-dicarboxamide] | < 0.01 |

Reference: patent publication US11691962B2 (eXIthera Pharmaceuticals, Inc., priority 2018, dated 2023)
